Key:
[1] = system: erythroid cells (peripheral blood cells); assay: Erythroid cell viability by Calcein-AM fluorescent staining (FIG. 2); format: cell-based; details: 0.5 mM
Method: Compositions were tested for the ability to directly stimulate erythroid cell growth. Cell growth stimulation is a useful property for an agent to be used to treat anemias and distinguishes such agents from the cytotoxic drugs currently being tested for treatment of hemoglobinopathies. Cell viability analyses were performed using fluorescent staining to detect living cells. Cells were in log phase of growth in 6-well dishes when used in proliferation assays. For enumeration of living cells, wells were washed once with medium to remove nonadherent or dead cells. Remaining live cells were labeled with 2 μM 2′,7′-bis-(carboxyethyl)-5-(and 6)-carboxy-fluorescein acetoxy-methyl ester (Calcein-AM) (Molecular Probes; Eugene, Oreg.) for 20 minutes at 37° C. and washed once. Fluorescence intensity of live cells was read on a CytoFluor 2300 Fluorescence Plate Scanner (Millipore; Bedford, Mass.) at excitation and emission wavelengths of 485 and 530 nm, respectively. The fluorescence intensity of a well was proportional to the number of living cells in the well. Background fluorescence was measured separately for each plate and subtracted from all readings. Each experiment was performed in triplicate or quadruplicate. The standard deviation (SD) of repetitive readings was less than 30% of the mean. Results are depicted in FIG. 2.

K562 cells = assay: Dose response, total and viable cells by trypan blue exclusion (FIG. 3); format: cell-based, human; details: up to 2.0 mM, day 4
Method: FIG. 3 A FIG. 3E Cell viability as determined by the comparative numbers of total and viable K562 cells in the presence of increasing concentrations of (A) phenoxyacetic acid, (B) dihydrocinnamic acid, (C) butyric acid ethyl ester, (D) arginine butyrate, and (E) isobutyramide.
Dose response curves at dosages of up to 2.0 mM were also determined for phenoxyacetic acid (PAA; FIG. 3A), dihydrocinnamic acid (DHC; FIG. 3B), butyric acid ethyl ester (BAEE; FIG. 3C), arginine butyrate (AB; FIG. 3D) and isobutyramide (IBT; FIG. 3E). Cells were counted on day 4 of treatment and viable cells identified by trypan blue exclusion.

[2] = system: erythroid progenitor cells cultured from human cord blood; assay: Fetal globin expression in human cell cultures (3H-leucine labelled globin chains, densitometry); format: cell-based
Method: Compositions were tested for activity in inducing fetal globin expression and protein production in erythroid progenitor cells cultured from human cord blood and analyzed as described by S. P. Perrine et al. (Blood 74: 454-60, 1989). Briefly, mononuclear cells were cultured in IMDM with 30% fetal calf serum and 2 units erythropoietin per ml to induce erythroid differentiation. Colonies were harvested on day 12-13, incubated with radio-labelled (^3H) leucine, and further incubated in leucine-free media, still in the presence of compounds, overnight. Globin composition in the erythroid cells was analyzed by laser densitometry of electrophoretically separated globin chains stained with Coomassie blue, and by autoradiography. Treated cells were incubated for 12-13 days (Table 2, Experiments A and B) or overnight (Table 2, Experiment C) in the presence of the indicated compounds and compared to untreated control cells cultured from the same human subject.

[3] = system: Human erythroleukemia cells; assay: Fetal globin mRNA in erythroleukemia cells by primer extension; format: cell-based; details: 1.0 mM; 4 days
Method: Compounds were tested for increased expression of the human globin genes in human erythroid cells. In addition, as the cell line being tested is a tumor cell line, the assay determines if differentiation, a growth inhibitory effect on cancer cells, is induced by the compounds tested. Human erythroleukemia cells were cultured in RPMI media with 10% fetal calf serum alone or with treatment with various compounds for 4 days. Globin mRNA was quantitated by primer extension analysis. Fetal globin mRNA was compared to the amount of fetal globin mRNA produced in untreated cells during the same culture period. The quantitation was expressed as a percent of alpha globin mRNA which was constant. Results are expressed proportional to α-globin mRNA (Table 3).

[4] = system: human erythroid cell line K562; assay: Cell viability / growth of K562 by Calcein-AM fluorescence; format: cell-based; details: 0.5 mM; over 3 days
Method: (§1) Such activities might limit their utility for treatment of anemias such as occur in thalassemia, but alternatively would be useful for anticancer effects. To determine cell viability, human erythroid cells were cultured in the presence and absence of these compounds for 4 days and the amount of DNA fragmentation which occurred was measured.
Cell viability analyses were performed using fluorescent staining to detect living cells. Cells were in log phase of growth in 6-well dishes when used in proliferation assays. For enumeration of living cells, wells were washed once with medium to remove nonadherent or dead cells. Remaining live cells were labeled with Calcein-AM for 20 minutes at 37° C. and washed once. Fluorescence intensity of adherent live cells was read on a CytoFluor 2300 Fluorescence Plate Scanner (Millipore; Bedford, Mass.) at excitation and emission wavelengths of 485 and 530 nm, respectively. The fluorescence intensity of a well was proportional to the number of living cells in the well. Background fluorescence was measured separately for each plate and subtracted from all readings. Each experiment was performed in triplicate or quadruplicate. The standard deviation (SD) of repetitive readings was less than 30% of the mean.
At higher concentrations, still easily achievable in vivo, arginine butyrate (0.5 mM) and dihydrocinnamic acid (greater than 0.5 mM) inhibited growth of this tumor cell line by approximately 50%. Therefore, these compounds are also useful as anti-tumor agents.

human erythroid cells = assay: DNA fragmentation by flow cytometry (propidium iodide); format: cell-based; details: for effect in DNA fragmentation assays: summary statement
Method: as §1
Flow cytometric determination of DNA profiles and DNA fragmentation were determined. Cytometric analysis was performed with a FACScan (Becton Dickenson Instruments; Columbia, Md.). The data analysis and display were performed using the Cell-Fit software program. Approximately 0.5×10^6 cells were washed twice with PBS and resuspended in 1 ml of 1% sodium citrate, 0.1% Triton X-100 and […] of propidium iodide/ml. Resulting permeabilized cells were kept in the dark at 4° C. overnight before DNA profile or DNA fragmentation analysis (Table 4).

anemic juvenile baboons = assay: In vivo reticulocyte proliferation and globin expression in phlebotomized anemic baboons; set-up: species or system baboon; details: for fetal reticulocytes on treatment: 4 days, baseline 4%
Method: Experiments were performed to determine if administration of the chemical compositions could induce fetal globin gene expression in an in vivo model similar to humans (S. P. Perrin et al., Brit. J. Haematol. 88:555-61, 1994). Briefly, chemicals were prepared as sterile pharmaceutical solutions in pH adjusted sterile water. A variety of chemical compositions were administered sequentially to some baboons. After administration of one compound, a wash-out period with no compound administration was maintained until reticulocytes returned to base line prior to administration of the next compound. This was done, at least partly, to compare the magnitude of response which occurred within the same individual animal to different compounds.
Briefly, juvenile female baboons (2 years old) were catheterized with arterial and venous catheters and phlebotomized gradually every day to maintain a moderate anemia of 7.0 to 7.5 grams hemoglobin/dl. Fetal reticulocytes, the newly produced red blood cells containing fetal globin, were assayed using a monoclonal antibody against fetal globin (HbF) as described by G. Dover et al. (Blood 67:735-38, 1986). Briefly, blood was stained with two antibodies, one specific for reticulocytes and another against fetal globin protein. The amount of antibody bound cells was determined by FACS analysis. Globin chain synthesis was assayed as described by J. B. Clegg et al. (J. Mol. Biol. 19:91-108, 1966). Briefly, reticulocytes were radio-labeled with ^3H-leucine which was incorporated in equal proportions into actively synthesized globin chains. After incubation in leucine-free media, cells were washed, and globin proteins were separated and purified by column chromatography. Radioactivity incorporated into each peak is compared and the ratios of gamma to gamma plus beta globin calculated. Each animal served as its own control with baseline monitoring assays performed for 4-6 weeks before any drug was administered. Phlebotomy was continued daily, so that peripheral HbF levels in the animals were not considered to be accurate over the short treatment time-frames and were not monitored. Safety monitoring was performed by frequent physical examinations, quantitation of food eaten, activity and frequent chemistry and hematology monitoring. Complete blood counts were assayed before, during and after treatment. Results presented were not adjusted to account for the daily phlebotomy.

[5] = system: patient with thalassemia intermedia; assay: Isobutyramide treatment of a patient with thalassemia, blood counts and hemoglobin; format: in vivo, human; details: 50 mg/kg 3 days/week
Method: This patient received isobutyramide at 50 mg/kg for 3 days/week over the course of the study.

[6] = system: Human mammary carcinoma cells (MCF-7); assay: Human mammary carcinoma cell viability by FACS; format: cell-based; details: 1.0 mM; 4 days
Method: Human mammary carcinoma cells (MCF-7) were cultured alone (controls) and with arginine butyrate or isobutyramide for 4 days. Viability was assayed by FACS after incubation with a fluorescent dye taken up by viable cells (FIG. 6). Growth was decreased by 50% with isobutyramide at 1.0 mM, about 60% with arginine butyrate at 0.5 mM, and greater than 90% with arginine butyrate at 1.0 mM.

[7] = system: system A transport in K562 cells and nucleated erythroblasts from fetal liver; assay: System A (neutral amino acid) transport, 3H-MAIB uptake; format: cell-based, human; details: 1 hour incubation; FIG. 12
Method: Inhibition of nutrient uptake is undesirable for treatment of anemias. Methyl aminoisobutyric acid (MAIB) labeled with tritium (^3H) is normally taken up by system A amino acid transport. Cold (unlabeled) compounds were added to cultures containing ^3H-MAIB and incubated for 1 hour. Cells were harvested and the amount of ^3H taken up by cells was quantitated by scintillation counting.

[8] = system: erythroblast culture from peripheral blood of patients with sickle cell anemia; assay: Induction of fetal globin in erythroblasts by steel factor; format: cell-based, human
Method: Peripheral blood was obtained from patients with sickle cell anemia. Mononuclear cells were isolated on Ficoll-Hypaque gradients. One culture was treated with 100 ng/ml steel factor for 13 days and compared with an untreated control. […] A second culture was incubated overnight with an identical dose of steel factor Plus ^3H-leucine. Amounts of labeled globin proteins synthesized in untreated (FIG. 5A) and steel factor treated (FIG. 5B) cells were determined by autoradiography and quantitated (scanned) by laser densitometry. […] The increase observed included both G-γ, and A-γ globin proteins.

[9] = 1.0 mM to 2.0 mM, untreated cells 26%
[10] = 2.0 mM, 4 days, controls 26%, 22%
[11] = 25 and 100 μg/kg subcutaneously

CCCC(=O)OCC [BAEE, butyric acid ethyl ester]
erythroid cell growth and proliferation compared to untreated controls (FIG. 2) [1]: either had no effect or stimulated erythroid cell growth and proliferation
proliferation (dose response, FIG. 3) (K562 cells): did not significantly inhibit proliferation
Gamma Increase ([2]; Exp. A, 0.1 mM, 12-13 days, above untreated cells): 13.0%
Gamma Increase ([2]; Exp. B, 0.2 mM, 12-13 days): 8.5%
Gamma Increase ([2]; Exp. C, 0.1 mM, overnight): 12.5%
induction of fetal globin mRNA in human cells [3]: significantly increased
growth of K562 [4]: either did not inhibit, or slightly enhanced growth
Degraded DNA (human erythroid cells; [9]): 13.8%
Degraded DNA (human erythroid cells; [10]): 13.8%
effect in DNA fragmentation assays (human erythroid cells): reduce DNA fragmentation
increase of fetal reticulocytes above basal levels (anemic juvenile baboons; intravenous 3 days, 500 to 1,000 mg/kg per day): over 1,100%
increase of fetal reticulocytes (anemic juvenile baboons; intravenous 3 days, 500 to 1,000 mg/kg per day (FIG. 11)): 11.3 fold

CC(C)C(N)=O [IBT, isobutyramide]
erythroid cell growth and proliferation compared to untreated controls (FIG. 2) [1]: either had no effect or stimulated erythroid cell growth and proliferation
Degraded DNA (human erythroid cells; [9]): 44%
Degraded DNA (human erythroid cells; [10]): 34%
effect in DNA fragmentation assays (human erythroid cells): decrease cell viability
fetal globin (HbF) ([5]; four month study period): lack of increased fetal globin
rise of hematocrit (Hct) ([5]; four month study period): 5.8%
rise of hemoglobin (Hgb) ([5]; four month study period): 1.6 g/dL
rise of reticulocytes (Retics) ([5]; four month study period): about 50%
rise of total red blood cells (RBC) ([5]; four month study period): ~1e+06 cells/µL
Hemoglobin-A1 and hemoglobin-A2 levels ([5]; throughout the study): approximately constant
Retics ([5]; Day 8): 2.5 ×10^6 cells
HbF ([5]; Day 22): 0.4
Retics ([5]; Day 22): 2.0 ×10^6 cells
Hgb-A2 ([5]; Day 29): 7.0
Retics ([5]; Day 29): 2.0 ×10^6 cells
HbF ([5]; Day 36): 0.4
Retics ([5]; Day 43): 2.0 ×10^6 cells
RBC ([5]; Day 96, 50 mg/kg): 7.3e+06 cells/µL
decrease of growth of MCF-7 [6]: 50%
system A transport of amino acids (3H-MAIB uptake) [7]: inhibited the neutral amino acid transport mechanism

steel factor: hematopoietic factor, also referred to as kit ligand, mast cell growth factor and stem cell factor
gamma globin expression after treatment ([8]; 100 ng/ml overnight plus 3H-leucine, increased from 17.6%): 43.3%
gamma globin expression in BFU-e cells after treatment ([8]; 100 ng/ml, 13 days, increased from 14%): 23.3%
Gamma globin expression, mean increase ([8]; 100 ng/ml, 13 days, versus untreated control): 16.1%
rise in numbers of newly-formed blood cells producing fetal globin (anemic juvenile baboons; [11]): 300-500%
rise of fetal globin chain protein (anemic juvenile baboons; [11]): 3 fold
total increase of gamma globin expression in the bone marrow (anemic juvenile baboons; [11]): 9 fold
fetal globin chain protein after treatment (anemic juvenile baboons; 25 and 100 μg/kg subcutaneously, undetectable before treatment): about 3 % of total non-alpha globin
fetal reticulocytes on treatment (anemic juvenile baboons; first dose regimen: 25 μg/kg subcutaneously once daily): 15%
fetal reticulocytes on treatment (anemic juvenile baboons; second dose regimen: 100 μg/kg subcutaneously): 12%

— patent publication US7910624B1, “Compositions for the treatment of blood disorders” (The Trustees of Boston University, priority 1995, dated 2011)
